Each structure is given as a SMILES string.

Sequence of GST-tagged-Wee1 kinase (P30291 whole entry): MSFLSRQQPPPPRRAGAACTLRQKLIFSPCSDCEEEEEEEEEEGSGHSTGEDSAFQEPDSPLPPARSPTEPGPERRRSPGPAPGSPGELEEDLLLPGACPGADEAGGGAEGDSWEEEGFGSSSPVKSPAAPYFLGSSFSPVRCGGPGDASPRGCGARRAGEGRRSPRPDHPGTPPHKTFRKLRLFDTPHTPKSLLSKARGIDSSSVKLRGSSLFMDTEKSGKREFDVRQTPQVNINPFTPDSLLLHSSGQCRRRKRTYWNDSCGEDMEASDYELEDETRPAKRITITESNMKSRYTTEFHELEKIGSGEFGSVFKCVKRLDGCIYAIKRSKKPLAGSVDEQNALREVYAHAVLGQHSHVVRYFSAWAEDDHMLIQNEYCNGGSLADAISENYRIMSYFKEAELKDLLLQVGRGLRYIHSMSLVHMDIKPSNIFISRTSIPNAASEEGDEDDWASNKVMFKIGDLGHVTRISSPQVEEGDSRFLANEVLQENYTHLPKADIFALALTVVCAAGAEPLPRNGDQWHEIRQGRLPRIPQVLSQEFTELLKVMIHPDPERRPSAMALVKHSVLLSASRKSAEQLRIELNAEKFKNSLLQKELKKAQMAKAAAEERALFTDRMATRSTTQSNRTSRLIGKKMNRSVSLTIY

For this assay, the target named is GST-tagged-Wee1 kinase (Homo sapiens, UniProt P30291). Nature of the assay: Wee1 time-resolved fluorescence equilibrium binding assay (displacement of Oregon Green-labeled ATP-competitive kinase probe). The procedure:
Wee1 kinase was assayed using a time-resolved fluorescence equilibrium binding assay monitoring displacement of a rapidly reversible Oregon Green-labeled ATP-competitive kinase probe (N-(2-(2-(2-(4-(4-(5-chloro-4-(2-(1-hydroxycyclobutyl)thiazol-5-yl)-1H-pyrrolo[2,3-b]pyridin-2-yl)phenyl)piperazin-1-yl)ethoxy)ethoxy)ethyl)-2′,7′-difluoro-3′,6′-dihydroxy-3-oxo-3H-spiro[isobenzofuran-1,9′-xanthene]-5-carboxamide) by competitive Wee1 inhibitors.
For the compound `COc1cc(Nc2ncc3c(=O)n(-c4ccccc4C)nc(-c4cccs4)c3n2)ccc1N1CCN(C(C)C)CC1` [Example 132, 2-{[4-(4-isopropylpiperazin-1-yl)-3-methoxyphenyl]amino}-6-(2-methylphenyl)-8-(2-thienyl)pyrimido[4,5-d]pyridazin-5(6H)-one], affinity was put at a Ki of 0.7 nM.

On to `CN1Cc2cc(Nc3ncc4c(=O)n(-c5ccccc5Cl)nc(-c5cccs5)c4n3)ccc2C2(CC2)C1` [Example 123, 6-(2-chlorophenyl)-2-[(2′-methyl-2′,3′-dihydro-1′H-spiro[cyclopropane-1,4′-isoquinolin]-7′-yl)amino]-8-(2-thienyl)pyrimido[4,5-d]pyridazin-5(6H)-one], for which the affinity, expressed as Ki, was 2 nM. With `CN1CCN(c2ccc(Nc3ncc4c(=O)n(-c5c(F)cccc5Cl)nc(-c5cnn(C)c5)c4n3)cc2)CC1` [Example 302, 6-(2-chloro-6-fluorophenyl)-2-{[4-(4-methylpiperazin-1-yl)phenyl]amino}-8-(1-methyl-1H-pyrazol-4-yl)pyrimido[4,5-d]pyridazin-5(6H)-one], the affinity corresponds to a Ki of 0.61 nM. The result for `C=CCn1nc(-c2ccco2)c2nc(Nc3ccc(N4CCCN(C(C)C)CC4)c(C)c3)ncc2c1=O` [Example 228, 8-(furan-2-yl)-2-({3-methyl-4-[4-(propan-2-yl)-1,4-diazepan-1-yl]phenyl}amino)-6-(prop-2-en-1-yl)pyrimido[4,5-d]pyridazin-5(6H)-one] reads 3 nM; that for `CNCCn1ccc(-c2nn(-c3c(Cl)cccc3Cl)c(=O)c3cnc(Nc4ccc(N5CCN(C)CC5)cc4)nc23)n1` [Example 261, 6-(2,6-dichlorophenyl)-8-{1-[2-(methylamino)ethyl]-1H-pyrazol-3-yl}-2-{[4-(4-methylpiperazin-1-yl)phenyl]amino}pyrimido[4,5-d]pyridazin-5(6H)-one], 0.3 nM; that for `Cc1nn(C)c(=O)c2cnc(Nc3ccc(N4CCN(C)CC4)cc3)nc12` [Example 1, 6,8-dimethyl-2-{[4-(4-methylpiperazin-1-yl)phenyl]amino}pyrimido[4,5-d]pyridazin-5(6H)-one], 1900 nM. As to `Cc1nn(-c2ncccc2Cl)c(=O)c2cnc(Nc3ccc4c(c3)CN(C)CC43CC3)nc12` [Example 351, 6-(3-chloropyridin-2-yl)-8-methyl-2-[(2′-methyl-2′,3′-dihydro-1′H-spiro[cyclopropane-1,4′-isoquinolin]-7′-yl)amino]pyrimido[4,5-d]pyridazin-5(6H)-one], the affinity, expressed as Ki, was 1.1 nM. As to `O=c1c2cnc(Nc3ccc4c(c3)CNCC4)nc2c(-c2cncs2)nn1-c1c(Cl)cccc1Cl` [Example 318, 6-(2,6-dichlorophenyl)-2-(1,2,3,4-tetrahydroisoquinolin-7-ylamino)-8-(1,3-thiazol-5-yl)pyrimido[4,5-d]pyridazin-5(6H)-one], the inhibitory constant (Ki) (commonly the dissociation constant of the complex between target and ligand, obtained from inhibition or displacement) was determined as 0.26 nM. For the compound `CN1CCN(c2ccc(Nc3ncc4c(=O)n(-c5c(F)cccc5Cl)nc(-c5ccncc5)c4n3)cc2)CC1` [Example 296, 6-(2-chloro-6-fluorophenyl)-2-{[4-(4-methylpiperazin-1-yl)phenyl]amino}-8-(pyridin-4-yl)pyrimido[4,5-d]pyridazin-5(6H)-one], affinity was put at a Ki of 0.27 nM. Turning to `CN1CCN(c2ccc(Nc3ncc4c(=O)n(-c5c(Cl)cccc5Cl)nc(-c5ccccn5)c4n3)cc2)CC1` [Example 103, 6-(2,6-dichlorophenyl)-2-{[4-(4-methylpiperazin-1-yl)phenyl]amino}-8-(pyridin-2-yl)pyrimido[4,5-d]pyridazin-5(6H)-one], the Ki came to 0.2 nM.

For `Cc1ccccc1-n1nc(-c2cccc(Br)c2)c2nc(Nc3ccc(N4CCN(C)CC4)cc3)ncc2c1=O` [Example 66, 8-(3-bromophenyl)-6-(2-methylphenyl)-2-{[4-(4-methylpiperazin-1-yl)phenyl]amino}pyrimido[4,5-d]pyridazin-5(6H)-one], the inhibition constant (Ki) was 4 nM. The compound `CCc1nn(-c2c(Cl)cccc2Cl)c(=O)c2cnc(Nc3ccc4c(c3)CNCC4)nc12` [Example 403, 6-(2,6-dichlorophenyl)-8-ethyl-2-(1,2,3,4-tetrahydroisoquinolin-7-ylamino)pyrimido[4,5-d]pyridazin-5(6H)-one] showed a Ki of 0.21 nM. On to `O=c1c2cnc(Nc3ccc(N4CCNCC4)cc3)nc2c(-c2ccccn2)nn1C1CCCCC1` [Example 249, 6-cyclohexyl-2-{[4-(piperazin-1-yl)phenyl]amino}-8-(pyridin-2-yl)pyrimido[4,5-d]pyridazin-5(6H)-one], for which the affinity corresponds to a Ki of 1500 nM. The result for `CN1Cc2cc(Nc3ncc4c(=O)n(-c5c(Cl)cncc5Cl)nc(-c5cn(C)cn5)c4n3)ccc2C2(CC2)C1` [Example 359, 6-(3,5-dichloropyridin-4-yl)-2-[(2′-methyl-2′,3′-dihydro-1′H-spiro[cyclopropane-1,4′-isoquinolin]-7′-yl)amino]-8-(1-methyl-1H-imidazol-4-yl)pyrimido[4,5-d]pyridazin-5(6H)-one] reads 5 nM; that for `Cc1nn(-c2ccccc2Cl)c(=O)c2cnc(Nc3ccc4c(c3)CNCC4(C)C)nc12` [Example 482, 6-(2-chlorophenyl)-2-[(4,4-dimethyl-1,2,3,4-tetrahydroisoquinolin-7-yl)amino]-8-methylpyrimido[4,5-d]pyridazin-5(6H)-one], 0.31 nM; that for `COc1ccccc1-n1nc(-c2ccccc2)c2nc(Nc3ccc(N4CCN(C)CC4)cc3)ncc2c1=O` [Example 30, 6-(2-methoxyphenyl)-2-{[4-(4-methylpiperazin-1-yl)phenyl]amino}-8-phenylpyrimido[4,5-d]pyridazin-5(6H)-one], 1 nM.

In turn, `CN1CCN(c2ccc(Nc3ncc4c(=O)n(-c5c(Cl)cccc5Cl)nc(-c5cccc(F)c5)c4n3)cc2)CC1` [Example 84, 6-(2,6-dichlorophenyl)-8-(3-fluorophenyl)-2-{[4-(4-methylpiperazin-1-yl)phenyl]amino}pyrimido[4,5-d]pyridazin-5(6H)-one] had a Ki of 0.1 nM.

`O=c1c2cnc(Nc3ccc(N4CCNCC4)cc3)nc2c(-c2nccs2)nn1-c1ncccc1Cl` [Example 347, 6-(3-chloropyridin-2-yl)-2-{[4-(piperazin-1-yl)phenyl]amino}-8-(1,3-thiazol-2-yl)pyrimido[4,5-d]pyridazin-5(6H)-one] yielded a Ki of 6.5 nM.

`CN1CCN(c2ccc(Nc3ncc4c(=O)n(-c5ccccc5)nc(-c5ccco5)c4n3)cc2)CC1` [Example 34, 8-(2-furyl)-2-{[4-(4-methylpiperazin-1-yl)phenyl]amino}-6-phenylpyrimido[4,5-d]pyridazin-5(6H)-one] gave a Ki of 4 nM.

`CN1CCN(c2ccc(Nc3ncc4c(=O)n(-c5c(Cl)cccc5Cl)nc(-c5ccncn5)c4n3)cc2)CC1` [Example 179, 6-(2,6-dichlorophenyl)-2-{[4-(4-methylpiperazin-1-yl)phenyl]amino}-8-(pyrimidin-4-yl)pyrimido[4,5-d]pyridazin-5(6H)-one] showed a Ki of 0.1 nM. The result for `O=c1c2cnc(Nc3ccc4c(c3)CNCC43CC3)nc2c(C(F)F)nn1-c1c(Cl)cccc1Cl` [Example 407, 6-(2,6-dichlorophenyl)-8-(difluoromethyl)-2-(2′,3′-dihydro-1′H-spiro[cyclopropane-1,4′-isoquinolin]-7′-ylamino)pyrimido[4,5-d]pyridazin-5(6H)-one] reads 0.21 nM.

Values taken from patent US8796289B2 (AbbVie Inc., priority 2011, dated 2014).
